Assay results published in US20260053764A1, “COMPOSITION FOR PREVENTING DETERIORATION IN COGNITIVE FUNCTION AND/OR IMPROVING COGNITIVE FUNCTION” (PHARMA FOODS INTERNATIONAL CO., LTD., priority 2020, published 2026).

Test system: cognitive function of a human
Assay: Cognitrax test in placebo-controlled randomized double-blind clinical tests A and B
Assay type: in vivo
Parameters: Reaction time / Complex attention / Cognitive flexibility / Social acuity / Non-verbal reasoning / Working memory / Continuous attention / Simple attention: scale not given here
Description: A Cognitrax test is known as such an examination that can assess a plurality of domains or items of cognitive function. The Cognitrax test is a cognitive function examination service practiced on the Web based on the cognitive function examination technique developed by CNS Vital Signs in the United States. In the Cognitrax test, among a total of 10 types of tests, which are verbal memory test, visual memory test, finger tapping test, symbol digit coding test (SDC test), Stroop test, shifting attention test, continuous performance test, perception of emotion test, reasoning test and four part continuous performance test, a test is carried out in accordance with the purpose of the examination to digitize the examination result regarding each of a total of 16 types of items at most, which are neurocognition index, composite memory, verbal memory, visual memory, psychomotor speed, reaction time, complex attention, cognitive flexibility, processing speed, executive function, social acuity, non-verbal reasoning, working memory, continuous attention, simple attention and motor speed.
Two types of placebo-controlled randomized double-blind two-group parallel comparison tests were carried out as clinical tests. […] Specifically, capsules comprising 100 mg of dextrin per capsule were used as the placebo food.
The screening examination was carried out to select 60 subjects for each test (a total of 120 subjects). MMSE (Mini Mental State Examination) is an examination for assessing the degree of progression of dementia or the like based on the score thereof with 30 as the perfect score, wherein dementia is suspected with a score of 23 or lower.
• (1) Japanese male and female at the age of 40 or higher • (2) People aware of reduction in cognitive function • (3) People who can continuously ingest the test food every day for 12 weeks • (4) People with an MMSE score of 24 or higher • (5) People who have received sufficient explanation of the purpose/content of the clinical test, have the ability to give consent, voluntarily applied to participate in the clinical test with sufficient understanding, and gave consent to the participation in the clinical test on paper
The total of 120 subjects were randomly divided into test A active group, test A placebo group, test B active group and test B placebo group with 30 subjects in each group. Each subject of the test A active group ingested two capsules of the active food, each subject of the test A placebo group ingested two capsules of the placebo food, each subject of the test B active group ingested one capsule of the active food and each subject of the test B placebo group ingested one capsule of the placebo food.
Each subject followed the schedule shown in the table below and ingested one or two of the assigned capsules together with water for 12 weeks from two weeks after the initial screening examination. All subjects had no particular instruction during the ingestion period and freely took their meals.
As shown with ● in the test schedule in Table 1, Cognitrax was carried out a total of five times, which are upon screening, before starting test food sample ingestion, after four weeks of ingestion, after eight weeks of ingestion and after twelve weeks of ingestion, and the RBANS neuropsychological test was carried out a total of two times, which are before staring test food ingestion and after twelve weeks of ingestion.

[1] = test A 200 mg, before ingestion
[2] = test A 200 mg, before ingestion, mean ± SD
[3] = test A, after eight weeks of ingestion

## NCCCC(=O)O [GABA, γ-aminobutyric acid]
Test A 200 mg, 4 w
  Cognition flexibility: difference between active food and placebo food groups: 2.1
  Complex attention: difference between active food and placebo food groups: 0.6
  Composite memory: difference between active food and placebo food groups: −0.9
  Continuous attention: difference between active food and placebo food groups: 1.1
  Executive function: difference between active food and placebo food groups: 2.4
  Motor speed: difference between active food and placebo food groups: 6.0
  Non-verbal reasoning: difference between active food and placebo food groups: 4.2
  Processing speed: difference between active food and placebo food groups: 4.1
  Psychomotor speed: difference between active food and placebo food groups: 7.1
  Reaction time: difference between active food and placebo food groups: 5.0
  Simple attention: difference between active food and placebo food groups: 0.9
  Social acuity: difference between active food and placebo food groups: −2.2
  Verbal memory: difference between active food and placebo food groups: 0.2
  Visual memory: difference between active food and placebo food groups: −1.4
  Working memory: difference between active food and placebo food groups: 3.0
Test A 200 mg, 4 w, mean ± SD
  Cognitive flexibility: 104.4 ± 9.8
  Executive function: 104.5 ± 9.8
  Non-verbal reasoning: 102.6 ± 9.1
  Reaction time: 99.3 ± 0.4
  Simple attention: 100.2 ± 10.5
  Social acuity: 93.2 ± 18.9
  Working memory: 108.5 ± 11.2
Test A 200 mg, 8 w
  Cognition flexibility: difference between active food and placebo food groups: 4.6
  Complex attention: difference between active food and placebo food groups: 1.3
  Composite memory: difference between active food and placebo food groups: −2.9
  Continuous attention: difference between active food and placebo food groups: 5.6
  Executive function: difference between active food and placebo food groups: 4.9
  Motor speed: difference between active food and placebo food groups: 3.9
  Non-verbal reasoning: difference between active food and placebo food groups: −2.2
  Processing speed: difference between active food and placebo food groups: 3.5
  Psychomotor speed: difference between active food and placebo food groups: 5.2
  Reaction time: difference between active food and placebo food groups: −0.6
  Simple attention: difference between active food and placebo food groups: −0.3
  Social acuity: difference between active food and placebo food groups: −0.3
  Verbal memory: difference between active food and placebo food groups: −6.3
  Visual memory: difference between active food and placebo food groups: 1.4
  Working memory: difference between active food and placebo food groups: 7.2
Test A 200 mg, 8 w, mean ± SD
  Cognitive flexibility: 108.2 ± 8.6
  Executive function: 108.5 ± 8.6
  Non-verbal reasoning: 104.9 ± 12.5
  Reaction time: 94.0 ± 21.9
  Simple attention: 99.2 ± 14.9
  Social acuity: 91.3 ± 20.8
  Working memory: 113.4 ± 9.7
Test A 200 mg, 12 w
  Cognition flexibility: difference between active food and placebo food groups: 1.4
  Complex attention: difference between active food and placebo food groups: 1.7
  Composite memory: difference between active food and placebo food groups: −5.0
  Continuous attention: difference between active food and placebo food groups: 3.7
  Executive function: difference between active food and placebo food groups: 1.4
  Motor speed: difference between active food and placebo food groups: 6.1
  Non-verbal reasoning: difference between active food and placebo food groups: 6.8
  Processing speed: difference between active food and placebo food groups: 3.1
  Psychomotor speed: difference between active food and placebo food groups: 6.4
  Reaction time: difference between active food and placebo food groups: 5.5
  Simple attention: difference between active food and placebo food groups: 5.5
  Social acuity: difference between active food and placebo food groups: −8.0
  Verbal memory: difference between active food and placebo food groups: −3.1
  Visual memory: difference between active food and placebo food groups: −4.6
  Working memory: difference between active food and placebo food groups: 4.2
Test A 200 mg, 12 w, mean ± SD
  Cognitive flexibility: 107.5 ± 7.3
  Continuous attention: 112.9 ± 8.2
  Reaction time: 100.7 ± 10.4
  Simple attention: 97.9 ± 17.0
  Social acuity: 89.0 ± 23.1
[1]
  Cognition flexibility: difference between active food and placebo food groups: 4.4
  Complex attention: difference between active food and placebo food groups: 3.4
  Composite memory: difference between active food and placebo food groups: 5.6
  Continuous attention: difference between active food and placebo food groups: 3.3
  Executive function: difference between active food and placebo food groups: 4.5
  Motor speed: difference between active food and placebo food groups: 6.7
  Non-verbal reasoning: difference between active food and placebo food groups: 3.7
  Processing speed: difference between active food and placebo food groups: 3.6
  Psychomotor speed: difference between active food and placebo food groups: 7.1
  Reaction time: difference between active food and placebo food groups: 4.5
  Simple attention: difference between active food and placebo food groups: 2.2
  Social acuity: difference between active food and placebo food groups: −6.4
  Verbal memory: difference between active food and placebo food groups: 4.6
  Visual memory: difference between active food and placebo food groups: 4.0
  Working memory: difference between active food and placebo food groups: 3.5
[2]
  Cognitive flexibility: 102.5 ± 9.4
  Complex attention: 105.6 ± 9.8
  Executive function: 102.8 ± 9.0
  Non-verbal reasoning: 102.4 ± 14.9
  Reaction time: 96.6 ± 14.5
  Simple attention: 97.9 ± 17.4
  Social acuity: 87.9 ± 17.9
[3]
  scores regarding continuous attention, GABA group compared to the placebo group: significant improvement
  scores regarding working memory, GABA group compared to the placebo group: significant improvement
Test A, after twelve weeks of ingestion
  scores regarding reasoning, GABA group compared to the placebo group: significant improvement
